Where two headings read alike, the source gives them in different places.
Columns and labels:
[1] = system: foot tapping in gerbils; assay: Gerbil Foot-Tapping Assay (induced by central injection of an NK1 agonist); format: in vivo, Mongolian gerbils; settings: Meriones unguiculatus, iv
From the text: Gerbil Foot-Tapping Assay CNS penetrant NK-1 receptor antagonists for use in the resent invention can be identified by their ability to inhibit foot tapping in gerbils induced by anxiogenic agents (such as pentagastrin) or central infusion of NK-1 receptor agonists such as GR-73632, or caused by aversive stimulation such as foot shock or single housing, based on the method of Rupniak & Williams, Eur. J. Pharmacol., 1994, 265, 179. Male or female Mongolian gerbils (35-70 g) are anaesthetised by inhalation of an isoflurane/oxygen mixture to permit exposure of the jugular vein in order to permit administration of test compounds or vehicle in an injection volume of 5 ml/kg i.v. Alternatively, test compounds may be administered orally or by subcutaneous or intraperitoneal routes. The wound is closed and a second skin incision is made in the midline of the scalp to expose the skull. […] The duration and/or intensity of hind foot tapping is then recorded continuously for 5 minutes. Alternatively, the ability of test compounds to inhibit foot tapping evoked by aversive stimulation, such as foot shock or single housing, may be studied using a similar method of quantification.

[2] = system: distress vocalisations in guinea-pig pups; assay: Separation-Induced Vocalisation Assay; format: in vivo, guinea-pigs; settings: Cavia porcellus, po; 4 hr. pre-treatment; read-out: guinea-pig vocalisation (4 hr. pre-treatment) ID50
From the text: Separation-Induced Vocalisation Assay Male and female guinea-pigs pups are housed in family groups with their mothers and littermates throughout the study. Experiments are commenced […] when the pups are 2 weeks old. Before entering an experiment, the pups are screened to ensure that a vigorous vocalisation response is reproducibly elicited following maternal separation. The pups are placed individually in an observation cage (55 cm×39 cm×19 cm) in a room physically isolated from the home cage for 15 minutes and the duration of vocalisation during this baseline period is recorded. Only animals which vocalise for longer than 5 minutes are employed for drug challenge studies (approximately 50% of available pups may fail to reach this criterion). On test days each pup receives an oral dose or a s.c. or i.p. injection of test compound or vehicle and is then immediately returned to the home cage with its mother and siblings for 30 minutes to 60 minutes (or for up to 4 hours following an oral dose, dependant upon the oral pharmacokinetics of the test compound) before social isolation for 15 minutes as described above. The duration of vocalisation on drug treatment days is expressed as a percentage of the pre-treatment baseline value for each animal. The same subjects are retested once weekly for up to 6 weeks. Between 6 and 8 animals receive each test compound at each dose tested. […]

[3] = system: cisplatin-induced emesis in ferrets; assay: Ferret Emesis Assay (cisplatin-induced emesis); format: in vivo; settings: Mustela putorius, po; cisplatin 10 mg/kg i.v.; 4 hours observation; read-out: ferret emesis ID90
Method: Individually housed male ferrets (1.0-2.5 kg) are dosed orally by gavage with test compound. Ten minutes later they are fed with approximately 100 g of tinned cat food. At 60 minutes following oral dosing, cisplatin (10 mg/kg) is given i.v. via a jugular vein catheter inserted under a brief period of halothane anaesthesia. The catheter is then removed, the jugular vein ligated and the skin incision closed. The ferrets recover rapidly from the anaesthetic and are mobile within 10-20 minutes. The animals are observed continuously during recovery from the anaesthetic and for 4 hours following the cisplatin injection, after which time the animals are killed humanely. The numbers of retches and vomits occurring during the 4 hours after cisplatin administration are recorded by trained observers.

## C[C@@H](O[C@H]1OCCN(Cc2n[nH]c(=O)[nH]2)[C@H]1c1ccc(F)cc1)c1cc(C(F)(F)F)cc(C(F)(F)F)c1 [2-(R)-(1-(R)-(3,5-bis(trifluoromethyl)-phenyl)-ethoxy)-3-(S)-(4-fluorophenyl)-4-(3-(5-oxo-1H,4H-1,2,4-triazolo)methyl)-morpholine]
[1]; 5 min, i.v., 5 mins., read-out: gerbil foot-tapping (5 mins.) ID50
  ED50: 0.36 mg/kg
[1]; 24 hrs. prior to central NK1 agonist challenge, read-out: gerbil foot-tapping (24 hrs.) ID50
  ED50: 0.33 mg/kg
[2]
  ED50: 0.73 mg/kg
[3]
  ED90: < 3 mg/kg

Reference: patent publication US6242446A, “Method for treating attention deficit disorder” (Merck & Co., Inc., priority 2000, dated 2001)
